Reference: patent publication US20250152706A1, “COMPOSITIONS FOR ORAL DELIVERY OF BIOTHERAPEUTICS” (INTRACT PHARMA LIMITED, priority 2022, published 2025)
Entries after “also recorded” stand apart in the source; their conditions may differ. Like-named read-outs stand apart in the source and are kept apart here.

Key:
[1] = Stability of infliximab in human colon fluid (human colon model), SE-HPLC; assay type: in vitro ADME; details: for effect of the excipient on infliximab stability, in words: human colon fluid, Examples 1 and 4
Experimental: A human colonic model based on a mixed faecal inoculum was used to mimic the luminal environment of the human large intestine. […] The basal media provides nutrients and growth factors to the microbiota allowing viability for up to 24 hours. The homogenized bacterial media was sieved through an open mesh fabric (SefarNitex™, pore size 350 μm) to remove any nonhomogeneous fibrous material. The pH was maintained at approximately 7.0 to mimic the colonic luminal pH of the human.
Stability of the drug/antibody infliximab in human colon fluid was measured with and without 5-ALA at varying concentrations. Each experiment was conducted in duplicate/triplicate.
Stability of the drug infliximab in human colon fluid was measured with and without 5-ALA and L-arginine at varying concentrations. Each experiment was conducted in duplicate/triplicate.
Stability of the drug infliximab in human colon fluid was measured with and without 5-ALA and aprotinin at varying pH. Each experiment was conducted in duplicate/triplicate.
Each experiment was conducted in duplicate/triplicate.

[2] = Experimental: Antibody stock solution (infliximab) was prepared in PBS at a 2 mg/ml concentration. 5-ALA was prepared at concentrations 10, 20 or 40 mg/ml. Methyl-ALA, hexyl-ALA, salcaprozate sodium, (SNAC) and sodium chenodeoxycholate were prepared at 20 mg/ml concentrations. The base L-arginine was prepared at 11, 22 or 44 mg/ml, and the stabiliser aprotinin was prepared at a 2 mg/ml concentration.
A 300×8.0-mm YMC-Pack Diol-200 S-5 μm, 20 nm (YMC Co Ltd, Kyoto, Japan) size exclusion (SE) chromatography column was used for sample separation using phosphate buffer saline (pH 7.3) prepared in sterile HPLC grade water as the mobile phase for elution, at a flow rate of 0.5 ml/min. The analysis was operated at room temperature and UV detection wavelength was set at 214 nm. Each sample was run for 40 minutes to allow complete elution of the sample proteins and reduce run-over.
Stability of the drug infliximab in rat caecum slurry was measured with and without SNAC, sodium chenodeoxycholate, hexyl-ALA and aprotinin. Each experiment was conducted in duplicate/triplicate. The antibody remaining at different time points was measured by SE-HPLC.

[3] = Stability of oxytocin in rat caecum slurry, RP-HPLC; details: for effect of the excipient on oxytocin stability, in words: rat caecum slurry, Examples 6 and 7; for remaining at 2 h, 1 mg/ml: Wistar, rat, pH 5.5, % Drug at T = 2 h, oxytocin 1 mg/ml, aprotinin 1 mg/ml in rat caecum slurry
Experimental: The rat caecum slurry was based on combination of cecum and proximal colon fluids collected from healthy wistar rats weighing 250 g. The fluids were collected immediately after sacrificing the rats and transferred to an anaerobic workstation (Electrotek 500TG™ workstation, Electrotek, West Yorkshire, UK) maintained at 37° C. and 70% relative air humidity. The fluids were diluted with freshly prepared basal medium to obtain a 50% w/w caecum fluid by homogenization. The homogenized mixture was sieved through an open mesh fabric. The pH of the fluid was measured as 5.5.
Peptide stock solution (oxytocin) were prepared in PBS at 2 mg/ml concentrations. Concentrations of 10 mg/ml and 40 mg/ml 5-ALA, 40 mg/ml methyl-ALA, 40 mg/ml hexyl-ALA and 2 mg/ml aprotinin were prepared. Stock solutions containing certain oxytocin combinations were added to 50% rat caecum slurry to obtain incubation concentrations (Examples 6 and 7) of 1 mg/ml peptide, 5 mg/ml or 20 mg/ml 5-ALA, 20 mg/ml methyl-ALA, 20 mg/ml hexyl-ALA, 1 mg/ml aprotinin, and 25% w/w rat caecum slurry. Samples were withdrawn at appropriate time points and added to 0.1N HCl solution in a ratio of 1:3. The samples were centrifuged at 9.6 g for 10 mins and the supernatant was analysed by reversed phase-HPLC (RP-HPLC).
A 150×4.6-mm Luna 5 μm C18 100 Å (Phenomenex, Torrance, CA) column was used using a gradient system as below:
Each sample's injection volume was 20 μl, the mobile phase flow rate was 1 ml/min and the peptide was detected at 214 nm. Each sample was run for 23 mins.
Stability of the drug oxytocin in rat caecum slurry was measured with and without 5-ALA and aprotinin, an enzyme inhibitor. Each experiment was conducted in duplicate/triplicate. The oxytocin remaining at different time points was measured by RP-HPLC.
Stability of the drug oxytocin in rat caecum slurry was measured with and without methyl-ALA, hexyl-ALA and aprotinin, an enzyme inhibitor. Each experiment was conducted in duplicate/triplicate. The oxytocin remaining at different time points was measured by RP-HPLC.

[4] = Ussing chamber penetration of oxytocin into rat colon tissue, RP-HPLC; assay type: in vitro ADME; details: Example 12
Experimental: (§1) The chambers are made of solid acrylic and supports the tissue membrane in such a way that each side of the membrane is isolated and faces a different chamber representing the luminal (apical) and blood (basal) compartments. The working system consists of a unit to fit a maximum of six vertical chambers, a gas manifold for carbogen purging (95% O2, 5% CO2) and a heater block to maintain the temperature of the chambers at 37° C. during the experiments with the use of a circulating water bath. The chambers are two-piece assemblies held together by a high spring-tension retaining ring to ensure leak-free operation during the experiments. […]
(§2) For the tissue penetration studies, the freshly excised small intestine (jejunum) and proximal colon tissue of healthy wistar rats was collected and transferred to an ice-cold solution of Krebs-Bicarbonate Ringer solution (KBr) of pH 7.4. […] The TEER was continuously monitored during the experiment to confirm the viability and integrity of the tissue. […]
(§3) Permeability of the drug oxytocin across rat small intestine (jejunum) and colon tissue was measured with and without 5-ALA. The peptide in the tissue at 2 h and was measured by RP-HPLC.

[5] = Ussing chamber penetration of infliximab into rat small intestine tissue, ELISA; details: 2 h, Examples 8-10
Experimental: as §1, §2
(§4) Infliximab sample analysis (permeability studies) was performed using an indirect ELISA platform assay. […] The plate was read at a wavelength of 650 nm with the plate reader (Synergy LX Multimode Reader, Biotek).
(§5) Permeability of the drug infliximab across rat small intestine (jejunum) and colon tissue was measured with and without 5-ALA and the base, L-arginine. […]

[6] = Ussing chamber penetration of infliximab into rat colon tissue, ELISA; details: 2 h
Experimental: as §1, §2, §4, §5

[7] = Ussing chamber penetration of oxytocin into rat small intestine tissue, RP-HPLC; details: 2 h, Examples 12-14
Experimental: as §1, §2, §3
Permeability of oxytocin across rat small intestine (jejunum) was measured with and without 5-ALA, methyl-ALA and hexyl-ALA. The peptide in the tissue at 2 h and was measured by RP-HPLC. […]

[8] = Example 1, infliximab 1 mg/ml in human colon fluid, 5-ALA.HCl 5 mg/ml (pH 5.5), 10 mg/ml (pH 4.9), 20 mg/ml (pH 4.1)
[9] = Example 2, infliximab 1 mg/ml in human colon fluid, 5-ALA phosphate + L-arginine 5 + 5.5 mg/ml (pH 6.4), 10 + 11 mg/ml (6.5), 20 + 22 mg/ml (pH 6.5), 5-ALA phosphate 20 mg/ml + NaOH (pH 6.4)
[10] = Example 4, infliximab 1 mg/ml, 5-ALA.HCl / methyl-ALA / hexyl-ALA 10 mg/ml, aprotinin 1 mg/ml in human colon fluid, pH 6.5

**Q.** With `CCCCCCOC(=O)CCC(=O)CN` [hexyl-ALA, hexyl aminolevulinic acid] as the molecule, how does the “effect of the excipient on infliximab stability, in words” value [1] read?
**A.** greater antibody stabilisation

**Q.** What about the “effect of the excipient on infliximab stability, in words” value [2] of the same molecule?
**A.** provide good antibody stability

**Q.** And the “effect of the excipient on oxytocin stability, in words” value [3]?
**A.** provide some peptide stabilisation

**Q.** For aprotinin, which “effect of the excipient on infliximab stability, in words” value [2] is on record?
**A.** provides an antibody stabilisation effect

**Q.** With `CC[C@H](C)[C@@H]1NC(=O)[C@H](Cc2ccc(O)cc2)NC(=O)[C@@H](N)CSSC[C@@H](C(=O)N2CCC[C@H]2C(=O)N[C@@H](CC(C)C)C(=O)NCC(N)=O)NC(=O)[C@H](CC(N)=O)NC(=O)[C@H](CCC(N)=O)NC1=O` [Oxytocin] as the molecule, how does the “% Drug in colon tissue at 2 h” value ([4]; oxytocin 1 mg/ml, 5-ALA.HCl 20 mg/ml) read?
**A.** 0.0 ± 0.0%

**Q.** What about the remaining at 2 h, 1 mg/ml ([3]; Example 6, 5-ALA.HCl 20 mg/ml) of the same molecule?
**A.** 10.9 ± 3.4%

**Q.** What about the remaining at 2 h, 1 mg/ml ([3]; Example 7, methyl-ALA / hexyl-ALA 20 mg/ml) of the same molecule?
**A.** 5 ± 2%

**Q.** What does the source list for `NCC(=O)CCC(=O)O` [Formulation 5-ALA, 5-aminolevulinic acid]?
**A.** effect of the excipient on infliximab stability, in words [1]: provides antibody stability; also recorded: does not stabilize the antibody in a dose dependent manner; effect of the excipient on infliximab permeation / tissue uptake, in words [5]: did not lead to permeation or improved tissue uptake of infliximab; effect of the excipient on infliximab permeation / tissue uptake, in words ([6]; rat colon tissue, Example 8): did not lead to permeation or improved tissue uptake of infliximab; effect of the excipient on oxytocin permeation / tissue level, in words ([4]; rat colon tissue, 2 h): acts as a permeability enhancer and increases the amount of oxytocin; effect of the excipient on oxytocin stability, in words [3]: acts as a stabiliser and increases the amount of peptide present in the caecum slurry

**Q.** With “Infliximab: monoclonal antibody; existing commercial IBD therapeutic antibody, tested alone as control” as the molecule, how does the “% Drug at T = 2 h” value [1, 8] read?
**A.** 21.5 ± 0.0%

**Q.** And the “% Drug at T = 4 h” value [1, 8]?
**A.** 7.8 ± 0.0%

**Q.** What about the “% Drug at T = 2 h” value [1, 9] of the same molecule?
**A.** 16.5 ± 0.4%

**Q.** What about the “% Drug at T = 4 h” value [1, 9] of the same molecule?
**A.** 6.5 ± 0.3%

**Q.** What about the “% Drug at T = 2 h” value [1, 10] of the same molecule?
**A.** 37.6 ± 3.5%

**Q.** What about the “% Drug at T = 4 h” value [1, 10] of the same molecule?
**A.** 16.1 ± 0.6%

**Q.** Which “effect of the excipient on infliximab stability, in words” value [2] does the source give for `C[C@H](CCC(=O)[O-])[C@H]1CC[C@H]2[C@@H]3[C@H](O)C[C@@H]4C[C@H](O)CC[C@]4(C)[C@H]3CC[C@]12C.[Na+]` [sodium chenodeoxycholate] here?
**A.** provide no stabilisation

**Q.** With `COC(=O)CCC(=O)CN` [methyl-ALA, methyl aminolevulinic acid] as the molecule, how does the “effect of the excipient on infliximab stability, in words” value [1] read?
**A.** greater antibody stabilisation

**Q.** Which “effect of the excipient on infliximab tissue level, in words” value ([6]; rat colon tissue pre-treated with NAC, Example 11) does the source give for `CCCCCCCCCC(=O)[O-].[Na+]` [sodium caprate] here?
**A.** may have led to increased tissue levels of antibody

**Q.** And the “effect of the excipient on oxytocin permeation / tissue level, in words” value [7]?
**A.** greatest increase in oxytocin tissue levels

**Q.** Which “effect of the excipient on infliximab stability, in words” value [2] does the source give for `O=C([O-])CCCCCCCNC(=O)c1ccccc1O.[Na+]` [SNAC, salcaprozate sodium] here?
**A.** provide no stabilisation
